In patent publication US7399638B2, “Prediction method for lipidosis” (Takeda Pharmaceutical Company Limited, priority 2003, dated 2008):
Like-named read-outs stand apart in the source and are kept apart here. Marks after values point to notes of the source that are not given here.

Key:
Crj: CD(SD)IGS rats [1] = assay: Urinary PAG/hippuric acid ratio by 1H NMR in rats
Procedure: During the urine pooling, the collecting vessels were kept in an ice-cooled condition. After the urine collection, the urine was centrifuged at 1500×g for 10 minutes, and not less than 1 mL of the supernatant was collected and stored under freezing (below −70° C.) in a microtube in an ultralow-temperature freezer until the measurement. For the negative control group, 24-hour pooled urine was collected under ice cooling; after the urine collection, the urine was stored at −30° C. until the measurement.
Crj: CD(SD)IGS rats [2] = conditions: rat, in vivo
Procedure: (§1) The following 10 kinds of commercially available drugs were examined as the test compounds for a potential of inducing PLsis by histopathological examination and peripheral blood lymphocyte testing.
(§2) The following experiments were performed using the prematurely autopsied animals.
(§3) The high-dose dosing suspension was diluted about 3 fold and 10 fold with dispersant/solvent to prepare intermediate- and low-dose dosing suspensions. […] [For LD50, the Summary Basis of Approval (FDA) for each drug was referenced to.]
(§4) The animals were examined for mortality, general conditions, body weight, food consumption and the like using PM4800 (Mettler) and EB3200D (Shimadzu Corporation).

Crj: CD(SD)IGS rats [3] = conditions: male, rat, in vivo, 3 days
Procedure: as §1, §2, §3, §4
Hematological examination was performed for parameters such as RBC count, hematocrit, hemoglobin concentration, mean corpuscular hemoglobin (MCH), mean corpuscular hemoglobin concentration (MCHC), mean corpuscular volume (MCV), platelet count, WBC count, reticulocyte count, differential WBC, and vacuolated lymphocyte ratio (for PLsis-inducing compounds only) using ADVIA120 (Bayer Medical Ltd.) and E-4000 (Sysmex Corporation).

[4] = rat urine, 100 mg/kg/day by gavage, 3 days, mean n = 3-4
[5] = rat urine, 300 mg/kg/day by gavage, 3 days, mean n = 3-4
[6] = rat urine, 1000 mg/kg/day by gavage, 3 days, mean n = 3-4
[7] = rat 24-hour pooled urine, 30 mg/kg/day by gavage, 4 days, negative control drug, mean n = 2-4
[8] = rat 24-hour pooled urine, 100 mg/kg/day by gavage, 4 days, negative control drug, mean n = 2-4
[9] = rat urine, 30 mg/kg/day by gavage, 3 days, mean n = 3-4

| Compound | PAG + hippuric acid/creatinine (Crj: CD(SD)IGS rats [1]; [4]) | PAG/creatinine (first term of PAG + hippuric acid) (Crj: CD(SD)IGS rats [1]; [4]) | hippuric acid/creatinine (second term of PAG + hippuric acid) (Crj: CD(SD)IGS rats [1]; [4]) | PAG + hippuric acid/creatinine (Crj: CD(SD)IGS rats [1]; [5]) | PAG/creatinine (first term of PAG + hippuric acid) (Crj: CD(SD)IGS rats [1]; [5]) | hippuric acid/creatinine (second term of PAG + hippuric acid) (Crj: CD(SD)IGS rats [1]; [5]) | Histopathological changes (PLsis): Liver (Crj: CD(SD)IGS rats [2]; 100 mg/kg/day) | Histopathological changes (PLsis): Lung (Crj: CD(SD)IGS rats [2]; 100 mg/kg/day) | Histopathological changes (PLsis): Lymph node (Crj: CD(SD)IGS rats [2]; 100 mg/kg/day) | Histopathological changes (PLsis): Others (Crj: CD(SD)IGS rats [2]; 100 mg/kg/day) | Histopathological changes (PLsis): Spleen (Crj: CD(SD)IGS rats [2]; 100 mg/kg/day) | Histopathological changes (PLsis): Liver (Crj: CD(SD)IGS rats [2]; 300 mg/kg/day) | Histopathological changes (PLsis): Lung (Crj: CD(SD)IGS rats [2]; 300 mg/kg/day) | Histopathological changes (PLsis): Lymph node (Crj: CD(SD)IGS rats [2]; 300 mg/kg/day) | Histopathological changes (PLsis): Others (Crj: CD(SD)IGS rats [2]; 300 mg/kg/day) | Histopathological changes (PLsis): Liver (Crj: CD(SD)IGS rats [2]; 30 mg/kg/day) | Histopathological changes (PLsis): Lung (Crj: CD(SD)IGS rats [2]; 30 mg/kg/day) | Histopathological changes (PLsis): Lymph node (Crj: CD(SD)IGS rats [2]; 30 mg/kg/day) | Histopathological changes (PLsis): Others (Crj: CD(SD)IGS rats [2]; 30 mg/kg/day) | Histopathological changes (PLsis): Spleen (Crj: CD(SD)IGS rats [2]; 30 mg/kg/day) | further results |
| --- | --- | --- | --- | --- | --- | --- | --- | --- | --- | --- | --- | --- | --- | --- | --- | --- | --- | --- | --- | --- | --- |
| CC/C(=C(\c1ccccc1)c1ccc(OCCN(C)C)cc1)c1ccccc1 [Tamoxifen, tamoxifen] | 1.34 | 0.31 | 1.02 | 1.16 | 0.63 | 0.53 | − | + | + | − | − | + | + | + | − |  |  |  |  |  | PAG + hippuric acid/creatinine (Crj: CD(SD)IGS rats [1]; [6]): 1.58; PAG/creatinine (first term of PAG + hippuric acid) (Crj: CD(SD)IGS rats [1]; [6]): 0.91; hippuric acid/creatinine (second term of PAG + hippuric acid) (Crj: CD(SD)IGS rats [1]; [6]): 0.67; Histopathological changes (PLsis): Spleen (Crj: CD(SD)IGS rats [2]; 300 mg/kg/day): −; Histopathological changes (PLsis): Liver (Crj: CD(SD)IGS rats [2]; 1000 mg/kg/day): +; Histopathological changes (PLsis): Lung (Crj: CD(SD)IGS rats [2]; 1000 mg/kg/day): +; Histopathological changes (PLsis): Lymph node (Crj: CD(SD)IGS rats [2]; 1000 mg/kg/day): +; Histopathological changes (PLsis): Others (Crj: CD(SD)IGS rats [2]; 1000 mg/kg/day): −; Histopathological changes (PLsis): Spleen (Crj: CD(SD)IGS rats [2]; 1000 mg/kg/day): − |
| COc1ccc(C2CNC(=O)C2)cc1OC1CCCC1 (stereo not drawn) [Rolipram, rolipram] |  |  |  |  |  |  | − | − | − | − | − |  |  |  |  | − | − | − | − | − | PAG + hippuric acid/creatinine (Crj: CD(SD)IGS rats [1]; [7]): 1.43; PAG/PAG + hippuric acid (Crj: CD(SD)IGS rats [1]; [7]): 17.48%; PAG/creatinine (first term of PAG + hippuric acid) (Crj: CD(SD)IGS rats [1]; [7]): 0.25; PAG/hippuric acid (Crj: CD(SD)IGS rats [1]; [7]): 18.22%; hippuric acid/creatinine (second term of PAG + hippuric acid) (Crj: CD(SD)IGS rats [1]; [7]): 1.18; PAG + hippuric acid/creatinine (Crj: CD(SD)IGS rats [1]; [8]): 1.02; PAG/PAG + hippuric acid (Crj: CD(SD)IGS rats [1]; [8]): 13.73%; PAG/creatinine (first term of PAG + hippuric acid) (Crj: CD(SD)IGS rats [1]; [8]): 0.14; PAG/hippuric acid (Crj: CD(SD)IGS rats [1]; [8]): 16.29%; hippuric acid/creatinine (second term of PAG + hippuric acid) (Crj: CD(SD)IGS rats [1]; [8]): 0.88 |
| COc1ccc([C@]2(C#N)CC[C@@H](C(=O)O)CC2)cc1OC1CCCC1 [Ariflo] |  |  |  |  |  |  | − | − | − | − | − |  |  |  |  | − | − | − | − | − | PAG + hippuric acid/creatinine (Crj: CD(SD)IGS rats [1]; [7]): 1.34; PAG/PAG + hippuric acid (Crj: CD(SD)IGS rats [1]; [7]): 9.70%; PAG/creatinine (first term of PAG + hippuric acid) (Crj: CD(SD)IGS rats [1]; [7]): 0.13; PAG/hippuric acid (Crj: CD(SD)IGS rats [1]; [7]): 12.16%; PAG + hippuric acid/creatinine (Crj: CD(SD)IGS rats [1]; [8]): 1.14; PAG/PAG + hippuric acid (Crj: CD(SD)IGS rats [1]; [8]): 14.04%; PAG/creatinine (first term of PAG + hippuric acid) (Crj: CD(SD)IGS rats [1]; [8]): 0.16; PAG/hippuric acid (Crj: CD(SD)IGS rats [1]; [8]): 13.91%; hippuric acid/creatinine (second term of PAG + hippuric acid) (Crj: CD(SD)IGS rats [1]; [8]): 0.98 |
| CNCCC(Oc1ccc(C(F)(F)F)cc1)c1ccccc1 (stereo not drawn) [Fluoxetine, fluoxetine] | 1.06 | 0.27 | 0.79 | 0.67* | 0.20 | 0.47 | + | + | + | Brain | − | + | + | − | − | + | + | + | Brain | − | PAG + hippuric acid/creatinine (Crj: CD(SD)IGS rats [1]; [9]): 1.13; PAG/PAG + hippuric acid (Crj: CD(SD)IGS rats [1]; [9]): 15.60* %; PAG/creatinine (first term of PAG + hippuric acid) (Crj: CD(SD)IGS rats [1]; [9]): 0.17; PAG/hippuric acid (Crj: CD(SD)IGS rats [1]; [9]): 18.58* %; hippuric acid/creatinine (second term of PAG + hippuric acid) (Crj: CD(SD)IGS rats [1]; [9]): 0.96; PAG/PAG + hippuric acid (Crj: CD(SD)IGS rats [1]; [4]): 25.90* %; PAG/hippuric acid (Crj: CD(SD)IGS rats [1]; [4]): 36.86* %; PAG/PAG + hippuric acid (Crj: CD(SD)IGS rats [1]; [5]): 31.88* %; PAG/hippuric acid (Crj: CD(SD)IGS rats [1]; [5]): 56.32* %; Histopathological changes (PLsis): Spleen (Crj: CD(SD)IGS rats [2]; 300 mg/kg/day): −; Mean vacuolated lymphocyte ratio (Crj: CD(SD)IGS rats [3]; 30 mg/kg/day): 7%; Mean vacuolated lymphocyte ratio (Crj: CD(SD)IGS rats [3]; 100 mg/kg/day): 28%; Mean vacuolated lymphocyte ratio (Crj: CD(SD)IGS rats [3]; 300 mg/kg/day): 31% |
